Experimental data published in patent US20160367622A1, “AGONISTS OF GUANYLATE CYCLASE USEFUL FOR THE TREATMENT OF OPIOID INDUCED DYSFUNCTIONS” (priority 2013, published 2016).
“Also recorded” adds a separate entry of the source. Like-named read-outs stand apart in the source and are kept apart here. Positions of bridges follow the written chain, without caps; N, C: chain ends. Non-standard residues stand in square brackets, D forms with d. Residues, ends and D or L forms follow the SMILES beside them.

What was measured:
T84 cells = assay: cyclic GMP and cyclic AMP production in T84 cells; assay type: cell-based, human; conditions: 0.01, 0.1, 1, or 10 μM SP-333
Protocol: FIG. 3A-B is a series of graphs showing that SP-333 stimulates cyclic GMP, but not cyclic AMP production in T84 cells. Cells were treated with either control, IBMX, SP-333 ([…]), forskolin (FSK) or FSK+IBMX.
The results are depicted in FIG. 3A-B. T84 cells were treated with either control, IBMX, forskolin (FSK), or 0.01, 0.1, 1, or 10 μM SP-333, and the production of cGMP or cAMP measured (pmoles/well). CPT-cGMP and CPT-cAMP both stimulate Isc across T84 cell monolayers.

[1] = test system: female Sprague-Dawley rats; assay: morphine-induced delay in rat GI transit (charcoal meal); assay type: in vivo; conditions: 2.5 mg/kg morphine IP
Protocol: (§1) Animals: All study procedures were conducted under a study outline approved by the Institutional Animal Care and Use Committee of MB Research Labs (Spinnerstown, Pa.) or Lampire Biological Laboratories (Pipersville, Pa.). Seven to eight week old female Sprague-Dawley rats [Crl:CD(SD)], weighing between ˜180-210 grams, were obtained from Charles River Laboratories and allowed to acclimate for a week. Animals were maintained on a 12 hour light-dark cycle. For intestinal tissue collection and evaluation of GI transit, rats were fasted for at least 18 hours before the experiment, with free access to water.
(§2) The ability of opioids to delay GI transit in rats was tested by either administering 0 (vehicle) 0.25, 1 and 2.5 mg/kg of morphine or 0 (vehicle), 0.25, 2.5 and 5 mg/kg of methadone (1.5 ml/kg dose volume) by IP injection. Water served as vehicle control. Ten minutes later, a 2 mL charcoal meal consisting of 10% activated charcoal (Sigma-Aldrich, St. Louis, Mo.) and 10% gum Arabic (Sigma-Aldrich, St. Louis, Mo.) in water was administered via oral gavage. Rats were euthanized 10 min after the charcoal meal via IP injection of 150 mg/kg Beuthanasia-D solution (sodium pentobarbital, 390 mg/mL). The small intestine was removed and the total length from the pyloric sphincter to the ileocecal junction was recorded, as well as the distance traveled by the leading edge of the charcoal. Intestinal transit was determined by calculating the ratio (expressed as a percentage) of the distance between the pyloric sphincter and the leading edge of the charcoal to the distance between the pyloric sphincter and the ileocecal junction.
To evaluate the ability of SP-333 to reverse morphine induced delayed GI transit, animals were administered 2.5 mg/kg of morphine by IP injection followed immediately by oral gavage of 0 (vehicle), 0.5, 2.5, 5 and 50 mg/kg of SP-333 (1.5 ml/kg dose volume). Water served as vehicle control. Charcoal meal was administered ten minutes later and animals were euthanized ten minutes after the charcoal meal and intestinal transit was calculated as described above.

[2] = test system: female Sprague-Dawley rats; assay: methadone-induced delay in rat GI transit (charcoal meal); assay type: in vivo; conditions: 2.5 mg/kg methadone IP
Protocol: as §1, §2
To evaluate the ability of SP-333 to reverse methadone induced delayed GI transit, animals were administered 2.5 mg/kg of methadone by IP injection. Ten minutes later, an oral gavage of 0 (vehicle), 0.1, 0.5, 2.5, 5 and 50 mg/kg of SP-333 (1.5 ml/kg dose volume) was administered followed immediately by a 2 mL oral gavage of the charcoal meal. Ten minutes after the charcoal meal, animals were euthanized and intestinal transit was calculated as described above.

[3] = test system: patients with symptoms of OIC treated for non-malignant chronic pain with opioid therapy; assay: randomized 4-week placebo-controlled dose-ranging study in OIC: efficacy; assay type: in vivo, human; conditions: for Week 4 change from baseline in SBMs, LS Mean (SE) / Week 4 change from baseline in SBMs, Mean (SD): observed cases, mITT population
Source text: (§3) A Randomized, 4-Week, Double-Blind, Placebo-Controlled, Dose-Ranging Study to Assess the Safety and Efficacy of Sp-333 for the Treatment of Opioid-Induced Constipation (OIC) in Patients with Non-Malignant Chronic Pain Receiving Opioid Therapy
To evaluate the clinical efficacy of SP-333 compared with placebo, in patients with symptoms of OIC who have been treated for non-malignant chronic pain with opioid therapy.
(§4) The primary efficacy endpoint was to determine the mean change from baseline in the number of […] (SBMs) during Week 4 of the Treatment Period. Safety was assessed by analysis of the frequency of treatment-emergent adverse events (TEAEs), adverse events leading to withdrawal, and serious adverse events (SAEs).

[4] = test system: patients with symptoms of OIC treated for non-malignant chronic pain with opioid therapy; assay: randomized 4-week placebo-controlled dose-ranging study in OIC: safety; assay type: in vivo, human; conditions: for All AEs: preliminary safety top line
Source text: as §3
(§5) To assess the safety and tolerability of SP-333. To evaluate the pharmacodynamic effects of SP-333. To evaluate the pharmacokinetic properties of SP-333.
as §4

[5] = randomized 4-week study in OIC: SP-333 plasma levels; assay type: in vivo, human; conditions: for level at 0.5 h / level at 1 h: human, plasma, 6 mg, SP-333: 6 mg, read-out: SP-333 concentration; for level at 0.5 h: time 30; for level at 1 h: time 60
Source text: as §5

[6] = test system: female Sprague-Dawley CD rats; assay: methadone-induced constipation in rats (fecal output); assay type: in vivo, rat; conditions: methadone 2.5 mg/kg IP daily 9 days; SP-333 2.5, 5.0 and 10 mg/kg oral daily
[7] = then SP-333 0.5 mg/kg oral gavage
[8] = then SP-333 2.5 mg/kg oral gavage
[9] = then SP-333 5 mg/kg oral gavage
[10] = then SP-333 50 mg/kg oral gavage
[11] = 30 and/or 60 minute time points

CC(C)C[C@@H]1NC(=O)[C@H](CCC(=O)O)NC(=O)[C@@H](NC(=O)[C@H](CCC(=O)O)NC(=O)[C@H](CC(=O)O)NC(=O)[C@H](N)CC(N)=O)CSSC[C@@H]2NC(=O)[C@H](C)NC(=O)[C@H](C(C)C)NC(=O)[C@H](CC(N)=O)NC(=O)[C@H](C(C)C)NC(=O)[C@H](CSSC[C@@H](C(=O)N[C@H](CC(C)C)C(=O)O)NC(=O)CNC(=O)[C@H]([C@@H](C)O)NC2=O)NC1=O [SP-333, dAsn^1-Asp^2-Glu^3-Cys^4-Glu^5-Leu^6-Cys^7-Val^8-Asn^9-Val^10-Ala^11-Cys^12-Thr^13-Gly^14-Cys^15-dLeu^16] (H-[dN]DECELCVNVACTGC[dL]-OH; disulfide 4-12, 7-15)
cAMP production (T84 cells): not cAMP synthesis; also recorded: does not result in an increase of cAMP production
cGMP production (T84 cells): stimulates cGMP synthesis; also recorded: concentration dependent increase in cGMP levels
GI transit in morphine-treated rats [1, 7]: 27%
GI transit in morphine-treated rats [1, 8]: 37%
GI transit in morphine-treated rats [1, 9]: 46%
GI transit in morphine-treated rats [1, 10]: 48%
GI transit in methadone-treated rats [2, 7]: 40%
GI transit in methadone-treated rats [2, 8]: 39%
GI transit in methadone-treated rats [2, 9]: 44%
GI transit in methadone-treated rats [2, 10]: 52%
primary endpoint (mean change from baseline in SBMs during Week 4) ([3]; 3 mg and 6 mg doses): statistically significant improvement
Week 4 change from baseline in SBMs, Difference from Placebo ([3]; SP-333 1 mg): 0.613 SBMs/week
Week 4 change from baseline in SBMs, LS Mean (SE) ([3]; SP-333 1 mg): 2.436 (0.3800) SBMs/week
Week 4 change from baseline in SBMs, Mean (SD) ([3]; SP-333 1 mg): 2.429 (2.7363) SBMs/week
Week 4 change from baseline in SBMs, Difference from Placebo ([3]; SP-333 3 mg): 1.405 SBMs/week
Week 4 change from baseline in SBMs, LS Mean (SE) ([3]; SP-333 3 mg): 3.227 (0.3858) SBMs/week
Week 4 change from baseline in SBMs, Mean (SD) ([3]; SP-333 3 mg): 3.210 (3.8524) SBMs/week
Week 4 change from baseline in SBMs, Difference from Placebo ([3]; SP-333 6 mg): 1.528 SBMs/week
Week 4 change from baseline in SBMs, LS Mean (SE) ([3]; SP-333 6 mg): 3.351 (0.3919) SBMs/week
Week 4 change from baseline in SBMs, Mean (SD) ([3]; SP-333 6 mg): 3.379 (3.1424) SBMs/week
Diarrhea ([4]; 1 mg (n 74)): 3 (4%) n (%)
Diarrhea Drop ([4]; 1 mg (n 74)): 0 (0%) n (%)
Drops for AE ([4]; 1 mg (n 74)): 1 (1.4%) n (%)
All AEs ([4]; 1 mg (n 74)): 19 (25.7%) n (%)
patients with TEAE leading to study treatment discontinuation ([4]; 1 mg group): 1.4%
Diarrhea ([4]; 3 mg (n 70)): 4 (5.4%) n (%)
Diarrhea Drop ([4]; 3 mg (n 70)): 0 (0%) n (%)
Drops for AE ([4]; 3 mg (n 70)): 2 (2.9%) n (%)
serious adverse events: Chest Pain ([4]; 3 mg (n 70)): 1 (1.4%) n (%)
All AEs ([4]; 3 mg (n 70)): 16 (22.9%) n (%)
patients with TEAE leading to study treatment discontinuation ([4]; 3 mg group): 2.9%
Diarrhea ([4]; 6 mg (n 72)): 7 (9.7%) n (%)
Diarrhea Drop ([4]; 6 mg (n 72)): 2 (2.9%) n (%)
Drops for AE ([4]; 6 mg (n 72)): 5 (6.9%) n (%)
serious adverse events: Death (metastatic HCC) ([4]; 6 mg (n 72)): 1 (1.4%) n (%)
All AEs ([4]; 6 mg (n 72)): 23 (31.9%) n (%)
patients with TEAE leading to study treatment discontinuation ([4]; 6 mg group): 6.9%
percentage of patients experiencing at least 1 TEAE ([4]; SP-333 1 mg (placebo 27.4%)): 25.7%
percentage of patients experiencing at least 1 TEAE ([4]; SP-333 3 mg (placebo 27.4%)): 22.9%
percentage of patients experiencing at least 1 TEAE ([4]; SP-333 6 mg (placebo 27.4%)): 31.9%
most frequently reported TEAE ([4]; in vivo): diarrhea
maximum plasma level value observed [5, 11]: 2.71 ng/mL
number of patients in whom SP-333 plasma levels were observed [5, 11]: 4 patients
level at 0.5 h ([5]; subject 006-004, visit week 1): 2.71 ng/mL
level at 1 h ([5]; subject 006-004, visit week 1): 1.77 ng/mL
level at 0.5 h ([5]; subject 007-013, visit week 1): 1.38 ng/mL
level at 0.5 h ([5]; subject 026-016, visit week 4): 1.88 ng/mL
level at 1 h ([5]; subject 026-016, visit week 4): 1.5 ng/mL
level at 0.5 h ([5]; subject 047-002, visit week 4): 1.21 ng/mL
increase in Isc (rat jejunum tissue; 0.01-10 μM at mucosal surface of rat jejunum): concentration-dependent increase in Isc approaching saturation at 10 μM
stimulation of Isc (rat jejunum tissue; treatment from the basolateral chamber, rat jejunum tissues): did not stimulate Isc
average number of pellets compared to the methadone dosed group [6]: higher compared to the methadone dosed group
